Counter-ions that a name gives are not always drawn. Like-named read-outs stand apart in the source and are kept apart here.
Legend:
[1] = system: SUDHL-1 cells (human anaplastic large T-cell lymphoma cell line); assay: Prevention of β-D-GA-related cytotoxicity by natural nucleosides, SUDHL-1 cells; format: cell-based; conditions: for prevention of β-D-GA toxicity, in words: 50 μM natural nucleoside, SUDHL-1 cells, 3 days, FIG. 4
Method: (§1) The prevention of β-D-GA-related cytotoxicity in CEM cells (human T-cell lymphoma) and in the SUDHL-1 cells (human anaplastic large T-cell lymphoma cell line) was studied by adding natural nucleosides. This experiment was initiated by adding 50 μM of natural nucleosides into the media, together with increasing concentration of β-D-GA. CEM cells were seeded at 2500 cells per well and incubated for 4 days (=fast growing cell line with a doubling time of 1.3 days). SUDHL-1 cells were seeded at 10,000 cells/well, and incubated for 3 days (=slow growing cell line, doubling time 3 days). The result of this experiment is plotted in FIG. 4.

[2] = system: CEM cells (human T-cell lymphoma); assay: Prevention of β-D-GA-related cytotoxicity by natural nucleosides, CEM cells; format: cell-based; conditions: 50 μM natural nucleoside, 4 days, plot not shown
Method: as §1

Influenza A (H1N1) [3] = assay: microbe, parasite or virus in culture; format: cell-based; conditions: Initial Test, CPE Inhibition (Visual)
Influenza A (H3N2) [4] = assay: microbe, parasite or virus in culture; format: cell-based; conditions: Initial Test, CPE Inhibition (Visual)
Influenza B [5] = assay: microbe, parasite or virus in culture; format: cell-based; conditions: Initial Test, CPE Inhibition (Visual)
[6] = system: Respiratory Syncytial Virus A; assay: microbe, parasite or virus in culture; format: cell-based, Respiratory Syncytial Virus strain A2
[7] = system: Parainfluenza Type 3 Virus; assay: organism not typed; format: cell-based, Parainfluenza type 3 virus strain 14702
Influenza A (H1N1) [8] = assay: microbe, parasite or virus in culture; format: cell-based; conditions: Initial Test, Neutral Red
Influenza A (H3N2) [9] = assay: microbe, parasite or virus in culture; format: cell-based; conditions: Initial Test, Neutral Red
Influenza B [10] = assay: microbe, parasite or virus in culture; format: cell-based; conditions: Initial Test, Neutral Red
[11] = system: Respiratory Syncytial Virus A; assay: microbe, parasite or virus in culture; format: cell-based; conditions: Initial Test, Neutral Red
[12] = system: Parainfluenza Type 3 Virus; assay: organism not typed; format: cell-based; conditions: Initial Test, Neutral Red
HCV replicon = HCV replicon system in Huh7 cells, replicon RNA by Q-RT-PCR (HCV ΔCt, ΔΔCt); format: cell-based, hepatitis C virus; conditions: for Ave. ΔΔCt: HCV RNA ΔCt minus rRNA ΔCt; for Ave. HCV RNA ΔCt: HCV replicon in Huh7 cells; for average ΔΔCt: HCV RNA ΔCt minus rDNA ΔCt
[13] = system: rRNA (host RNA polymerase I product); assay: rRNA ΔCt in Huh7 replicon cells (effect on host RNA polymerases); conditions: Table 24, average of n
How it was run: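 Host RNA polymerase I activity estimated by quantifying rRNA in replicon cells relative to no-drug control, expressed as ΔCt. A specificity parameter is obtained by subtracting the HCV ΔCt and rRNA ΔCt values from each other.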

rDNA (host DNA) = assay: rDNA ΔCt in Huh7 replicon cells (effect on cellular DNA polymerases); conditions: Table 25, average of N
How it was run: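 Host rDNA (or beta-actin DNA) quantified in treated Huh7 replicon cells and compared with no-drug control as ΔCt, a relative measure of cellular DNA polymerase inhibition. A specificity parameter is obtained by subtracting the rDNA ΔCt from the HCV ΔCt.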

CEM cells = assay: cells; format: cell-based, human
Method: (§2) The cytotoxicity testing as performed herein is a standard technique. Briefly, cells are seeded in 96-well plates at various concentrations (dependent on cell type, duration of assay), typically at 5×10^3 cells per well, in the presence of increasing concentrations of the test compound (0, 1, 3, 10, 33, and 100 μM). After three (Vero cells), or four (CEM cells), or five (PBM cells) day-incubation, cell viability and mitochondrial activity are measured by adding the MTT-dye (Promega), followed by a 8 hours incubation. Afterwards the plates containing the dye are fixed by adding a stop-solution followed by another eight hour incubation. Finally, absorbance is read at 570 nm. Such methodologies are well described and available from the manufacturer (Promega).

PBM cells = assay: cells; format: cell-based, human
Method: as §2

Vero cells = assay: cells; format: cell-based
Method: as §2

[14] = system: human malignant T and B cells and various tumor cell lines; assay: Toxicity profile against human malignant T and B cells and various tumor cell lines (MTT, IC50); format: cell-based; conditions: for IC50: MTT assay, 3-5 days, read-out: Toxicity IC50
Method: as §2, with “Cytotoxicity” for “The cytotoxicity”, “here are” for “herein is a”, “techniques.” for “technique.”, “Depending on the cell-type incubation with test compound can vary in time, but is usually within the range of 3 to 5 days. Cell” for “After three (Vero cells), or four (CEM cells), or five (PBM cells) day-incubation, cell”, “eight” for “a 8”, “hours of” for “hours”
In order to explore the complete potential of this compound, a set of human malignant T and B cells and various tumor cell lines were incubated with […] at varying concentrations, and after the absorbance was read, an IC50 value was calculated. As a control, Ara-C, 5FU, and cyclo-heximide was taken alongside (Table 26).

[15] = Initial Test, CPE Inhibition (Visual), read-out: EC50, RSV
[16] = Initial Test, CPE Inhibition (Visual), read-out: EC50, Parainfluenza Type 3 Virus

Nc1ccn([C@@H]2O[C@H](CO)C[C@H]2O)c(=O)n1 (as salt: hemisulfate)
melting point: 202 to 203 °C (dec.)

O=c1[nH]c(=O)n([C@@H]2O[C@H](CO)[C@@H](O)[C@H]2O)c2nn[nH]c12 (hydrate or solvate)
melting point: 164 to 166 °C (dec.)

Nc1ccn([C@H]2C[C@H](O)[C@@H](CO)O2)c(=O)n1 [2′-Deoxycytidine]
prevention of β-D-GA toxicity, in words [1]: modest preventive activity effect

Nc1ccn([C@@H]2O[C@H](CO)[C@@H](O)[C@H]2O)c(=O)n1 [cytidine]
prevention of β-D-GA toxicity, in words [2]: markedly prevent β-D-GA toxicity | prevention of β-D-GA toxicity, in words [1]: markedly prevent β-D-GA toxicity

O=c1ccn([C@@H]2O[C@H](CO)[C@@H](O)[C@H]2O)c(=O)[nH]1 [uridine]
prevention of β-D-GA toxicity, in words [2]: markedly prevent β-D-GA toxicity | prevention of β-D-GA toxicity, in words [1]: markedly prevent β-D-GA toxicity

Nc1ccn([C@@H]2O[C@H](CO)C[C@H]2O)c(=O)n1 [β-D-AJ]
EC50 (Influenza A (H1N1) [3]): 150 µM | EC50 (Influenza A (H3N2) [4]): > 500 µM | EC50 (Influenza B [5]): 150 µM | EC50 [6, 15]: > 500 µM | EC50 [7, 16]: > 500 µM | EC50 (Influenza A (H1N1) [8]): 150 µM | EC50 (Influenza A (H3N2) [9]): > 500 µM | EC50 (Influenza B [10]): 150 µM | EC50 [11]: > 500 µM | EC50 [12]: > 500 µM | Ave. ΔΔCt (HCV replicon; Table 24): 1.18 | Ave. HCV RNA ΔCt (HCV replicon; Table 24, average of n): 2.92 | average ΔΔCt (HCV replicon; Table 25): 2.33 | Ave. HCV RNA ΔCt (HCV replicon; Table 25, average of N): 2.75 | Ave. rRNA ΔCt [13]: 1.74 | Ave. rDNA ΔCt (rDNA (host DNA)): 0.43

O=c1[nH]c(=O)n([C@@H]2O[C@H](CO)[C@@H](O)[C@H]2O)cc1O [β-D-CL, 5-hydroxyuridine]
EC50 (Influenza A (H1N1) [3]; Influenza A virus, H1N1, MDCK): > 5 µM | EC50 (Influenza A (H3N2) [4]; Influenza A virus, H3N2, MDCK): > 5 µM | EC50 (Influenza B [5]; Influenza B virus, MDCK): > 5 µM | antiviral activity against RSV, in words [6]: potent in-vitro anti-RSV compound | SI (Selectivity Index), RSV ([6]; Initial Test, CPE Inhibition (Visual)): 150 | EC50 ([6]; human respiratory syncytial virus, MA104, read-out: EC50, RSV): 0.5 µM | EC50 ([7]; MA104, read-out: EC50, Parainfluenza Type 3 Virus): 90 µM | EC50 (Influenza A (H1N1) [8]; Influenza A virus, H1N1, MDCK): 8 µM | SI (Selectivity Index), Influenza A (H1N1) (Influenza A (H1N1) [8]): 1.1 | EC50 (Influenza A (H3N2) [9]; Influenza A virus, H3N2, MDCK): > 5 µM | EC50 (Influenza B [10]; Influenza B virus, MDCK): > 5 µM | SI (Selectivity Index), RSV [11]: >170 | EC50 ([11]; human respiratory syncytial virus, MA104): < 0.5 µM | SI (Selectivity Index), Parainfluenza Type 3 Virus [12]: 1 | EC50 ([12]; MA104): 40 µM

OC[C@H]1O[C@@H](n2cnc3c(Cl)ncnc32)[C@H](O)[C@@H]1O [β-D-DJ]
EC50 (Influenza A (H1N1) [3]): > 500 µM | EC50 (Influenza A (H3N2) [4]): > 500 µM | EC50 (Influenza B [5]): 50 µM | EC50 [6, 15]: 500 µM | EC50 [7, 16]: > 500 µM | EC50 (Influenza A (H1N1) [8]): > 500 µM | EC50 (Influenza A (H3N2) [9]): > 500 µM | EC50 (Influenza B [10]): 110 µM | EC50 [11]: > 500 µM | EC50 [12]: 500 µM | Ave. ΔΔCt (HCV replicon; Table 24): −0.11 | Ave. HCV RNA ΔCt (HCV replicon; Table 24, average of n): 3.51 | average ΔΔCt (HCV replicon; Table 25): 2.14 | Ave. HCV RNA ΔCt (HCV replicon; Table 25, average of N): 4.84 | Ave. rRNA ΔCt [13]: 3.62 | Ave. rDNA ΔCt (rDNA (host DNA)): 2.70

Nc1nc(=O)n([C@@H]2C[C@H](CO)[C@@H](O)[C@H]2O)cc1F [β-D-GA]
IC50 (CEM cells): 1.9 µM | cytotoxic effect on CEM cells, in words (CEM cells): selective cytotoxic effect on CEM cells | IC50 (CEM cells; CEM (human T-cell lymphoma cell line), MTT assay, incubation 3-5 days, read-out: Toxicity IC50): 2.9 µM | IC50 (PBM cells): > 100 µM | % inhibition at 100 μM, PBM cells (PBM cells; 100 μM, five day incubation, MTT): 11.3% | IC50 (PBM cells; PBM (human peripheral blood mononuclear cells), MTT assay, incubation 3-5 days, read-out: Toxicity IC50): > 100 µM | IC50 (Vero cells): > 57.4 µM | IC50 (Vero cells; Vero (African green monkey kidney cell line), MTT assay, incubation 3-5 days, read-out: Toxicity IC50): > 100 µM | Ave. ΔΔCt (HCV replicon; Table 24): 3.93 | Ave. HCV RNA ΔCt (HCV replicon; Table 24, average of n): 6.04 | Ave. rRNA ΔCt [13]: 2.10 | IC50 ([14]; BL41 (human B-cell lymphoma cell line)): < 1 µM | IC50 ([14]; H9 (human T-cell lymphoblast cell line)): 1.4 µM | IC50 ([14]; HEPG2 (human liver carcinoma cell line)): > 100 µM | IC50 ([14]; JY (human B-cell lymphoma cell line, EBV transformed)): 3 µM | IC50 ([14]; LNCaP (human prostate adenocarcinoma cell line)): 45.7 µM | IC50 ([14]; MCF-7 (human breast carcinoma cell line)): > 100 µM | IC50 ([14]; SK-MEL-28 (human melanoma cell line)): > 100 µM | IC50 ([14]; SK-MES-1 (human lung squamous carcinoma cell line)): > 100 µM | IC50 ([14]; SUDHL-1 (human anaplastic large T-cell lymphoma cell line)): 0.7 µM | IC50 ([14]; SupT1 (human T-cell lymphoblast cell line)): 0.3 µM | toxicity in tumor cell panel, in words ([14]; human malignant T and B cells vs PBM and non-T or B neoplastic cells): potent toxicity in human malignant T and B cells, but not in human PBM cells and non-T or B neoplastic cells | effectiveness against slow vs fast growing cells, in words ([1]; SUDHL-1 and CEM cells): equally effective against slower growing SUDHL-1 cells and fast growing CEM cells

— patent US10100076B2, “Modified nucleosides for the treatment of viral infections and abnormal cellular proliferation” (priority 2000, dated 2018)
